Measured values from the NIST ThermoML archive (doi:10.1021/je800594e).
± gives the expanded uncertainty stated by the source.

Conditions: for speed of sound / mass density: 101.33 kPa, Liquid; for speed of sound: Pulse-echo method; for mass density: Vibrating tube method; for surface tension liquid-gas: Drop volume

speed of sound (288.15 K) | mass density (288.15 K) | speed of sound (293.15 K) | mass density (293.15 K) | surface tension liquid-gas (298.15 K) | speed of sound (298.15 K) | mass density (298.15 K) | speed of sound (303.15 K) | mass density (303.15 K) | speed of sound (308.15 K) | mass density (308.15 K) | Compound
1240.7 ± 1.5 m/s | 1076.64 ± 0.3 kg/m3 | 1218.1 ± 1.5 m/s | 1070.01 ± 0.29 kg/m3 | 28.08 ± 0.21 mN/m | 1195.1 ± 1.5 m/s | 1063.39 ± 0.28 kg/m3 | 1173.2 ± 1.5 m/s | 1056.78 ± 0.28 kg/m3 | 1151.5 ± 1.5 m/s | 1050.15 ± 0.27 kg/m3 | COC(=O)OC [dimethyl carbonate]
1213.6 ± 1.5 m/s | 706.58 ± 0.25 kg/m3 | 1192.9 ± 1.5 m/s | 702.57 ± 0.25 kg/m3 | 20.99 ± 0.17 mN/m | 1171.9 ± 1.5 m/s | 698.55 ± 0.25 kg/m3 | 1150.9 ± 1.5 m/s | 694.48 ± 0.25 kg/m3 | 1130.3 ± 1.5 m/s | 690.42 ± 0.25 kg/m3 | CCCCCCCC [octane]

Compound | speed of sound (288.15 K) | mass density (288.15 K) | speed of sound (293.15 K) | mass density (293.15 K) | surface tension liquid-gas (298.15 K) | speed of sound (298.15 K) | mass density (298.15 K) | speed of sound (303.15 K) | mass density (303.15 K) | speed of sound (308.15 K) | mass density (308.15 K)
Cc1ccc(C)cc1 [1,4-dimethylbenzene] | 1350.7 ± 1.6 m/s | 865.2 ± 0.24 kg/m3 | 1329.6 ± 1.6 m/s | 860.9 ± 0.24 kg/m3 | 27.43 ± 0.2 mN/m | 1308.4 ± 1.5 m/s | 856.58 ± 0.24 kg/m3 | 1287.4 ± 1.5 m/s | 852.21 ± 0.24 kg/m3 | 1266.4 ± 1.5 m/s | 847.83 ± 0.24 kg/m3
